Data on one compound can be found in US20200188382A1, “PHARMACEUTICAL COMPOSITION FOR INDUCING PROGRAMMED CELL DEATH IN CANCER CELLS” (KYOTO UNIVERSITY, priority 2016, published 2020).

Molecules are shown by their SMILES.

Common to all, as to type: cell-based
The subject of test [1] is Human cervical cancer cell line HeLa. Kind of test: Induction of production of NO in cancer cells (DAF-FM DA, flow cytometry). Conditions: 10 μM, 10 hours at 37° C., MEM (No Glucose) containing 0.1% Galactose and 5% FBS, FIG. 1. As to the method:
The amount of nitric oxide (NO) produced in cancer cells was measured using a nitric oxide detection indicator. Specifically, Compound 1 prepared as described above was added to cancer cells that were to be cultured under the following conditions such that the concentration of Compound 1 was 10 μM, and the cancer cells were cultured for 10 hours, then flow cytometry was performed while the NO detection indicator was in contact therewith, and fluorescence intensity and cell number distribution were measured.
(§1) Cancer cells: Human cervical cancer cell line HeLa
(§2) Nutrient sources of culture medium: MEM (No Glucose) containing 0.1% Galactose and 5% FBS
Culture time after Compound 1 or DMSO was added: 10 hours at 37° C.
Nitric oxide detection indicator: Diaminofluorescein-FM diacetate (DAF-FM DA)

For test [2] the test system is unchanged. Kind of test: Antitumor activity: number of living cells by CFSE-DA staining and WST-8 assay. Conditions: 5, 10, or 20 μM, 4 days at 37° C., MEM containing 5% FBS, CFSE-DA and WST-8, FIGS. 2 and 3. As to the method:
The antitumor effect on cancer cells was confirmed through measurement of the number of living cells using two methods.
Specifically, Compound 1 prepared as described above was added to cancer cells that were to be cultured under the following conditions such that the concentration of Compound 1 was 5, 10, or 20 μM, cancer cells were cultured for 4 days, and then an effect of Compound 1 on cancer cells was confirmed through fluorescence staining of living cells using CFSE-DA (FIG. 2) and WST-8 assays (FIG. 3).
as §1
Nutrient sources of culture medium: MEM containing 5% FBS
Culture time after Compound 1 or DMSO was added: 4 days at 37° C.
CFSE: 5- or 6-(N-Succinimidyloxycarbonyl)fluorescein 3′,6′-diacetate

For test [3] the test system is unchanged. Kind of test: Programmed cell death under glucose starvation, WST-8 assay. Conditions: 16 hours at 37° C., MEM with 0.1% Glucose or 0.1% Galactose (No Glucose) and 5% FBS, FIG. 6. How it is done: It was confirmed that programmed cell death of cancer cells by Compound 1 was facilitated under glucose starvation.
Specifically, the nutrient source of a culture medium used when Compound 1 was applied to cancer cells was set to either glucose (Glc) or galactose (Gal), cancer cells were cultured for 16 hours, and the survival rate of cancer cells was measured using WST-8 assays.
as §1
Culture medium before Compound 1 was added: MEM containing 10% FBS
Culture medium after Compound 1 was added: MEM containing 0.1% Glucose and 5% FBS, or containing 0.1% Galactose and 5% FBS (No Glucose)
Culture time after Compound 1 was added: 16 hours at 37° C.

Test [4] concerns a plurality of cancer cell lines. The test can be described thus: Antitumor effect on a plurality of cancer cell lines.
Test [5] concerns Human cervical cancer cell line HeLa. Kind of test: NO dependency of caspase 3 activation (NO scavenger / NO synthesis inhibitor), flow cytometry. Conditions: FIG. 5. How it is done:
It was confirmed that the activity of Caspase-3 above was NO-dependent, using two types of methods in which an NO scavenger and an NO synthesis inhibitor were used.
That is, first, the NO scavenger (0.2 mM) or NO synthesis inhibitor (4 mM) described above was added to cancer cells that were to be cultured under the following conditions, and the cancer cells were cultured for 1 hour, Compound 1 prepared as described above was added thereto such that the concentration of Compound 1 was 10 μM, the cancer cells were cultured for 15 hours, flow cytometry was then performed while a caspase 3 substrate and a membrane impermeable DNA stain were in contact therewith, and thus two-color dot plots were created.
as §1, §2
Culture time after NO scavenger and NO synthesis inhibitor were added: 1 hour at 37° C.
NO scavenger: Carboxy-PTIO (cPTIO)
NO synthesis inhibitor: L-NAME (NO synthatase inhibitor)
Culture time after Compound 1 or DMSO was added: 15 hours
Caspase 3 substrate: NucView (trademark, Biotium) 488
Membrane impermeable DNA stain: DRAQ7 (trademark, BioStatus)

As for `O=S(=O)(Nc1cc(C(F)(F)F)ccc1N1CC[C@@H]2CCCC[C@H]2C1)c1ccc(F)cc1` [Compound 1], the “production of NO in cells” value in test [1] is on record as “enhanced”. Further, in test [2], the “antitumor effect (survival rate of cancer cells)” value is given as “antitumor effect of reducing the survival rate of cancer cells”. In test [3], the “programmed cell death (survival rate) in glucose vs galactose medium” value is on record as “facilitated in a glucose depleted state”. Besides, the antitumor effect result in test [4] is “exhibited an antitumor effect on a plurality of cancer cell lines”. In addition, the “NO dependency of induced programmed cell death” value in test [5] (10 μM, cPTIO or L-NAME) was “NO-dependent”. The “ratio of cells with DRAQ7 negative and NucView 488 positive” value in test [5] (Compound 1 at 10 μM alone, 15 hours, no glucose/0.1% Galactose, control 7.8%) is 36.1%. Further, the “ratio of cells with DRAQ7 negative and NucView 488 positive under the presence of cPTIO” value in test [5] (Compound 1 at 10 μM, 15 hours, after 1 hour with NO scavenger cPTIO 0.2 mM) stood at 13.9%. Also, the “ratio of cells with DRAQ7 negative and NucView 488 positive under the presence of L-NAME” value in test [5] (Compound 1 at 10 μM, 15 hours, after 1 hour with NO synthesis inhibitor L-NAME 4 mM) is recorded as 22.7%.
